Like-named read-outs stand apart in the source and are kept apart here.
Columns and labels:
[1] = Dissociation constants by spectrophotometric titration; assay type: physicochemical; conditions: ultrapure water, 20°C
Procedure: The spectrophotometric titration was used for dissociation constants’ determination, utilizing spectrophotometer Agilent Cary-60 (Agilent Technologies, CA, USA), pH meter WTW InoLab_IDS Multi 9430 (WTW, Czech Republic), and pH electrode SenTix® Mic (WTW, Czech Republic). Data were analyzed by GraphPadPrism 8.0 software (GraphPad Software, CA, USA). The analyzed samples were prepared by adding 20 μL of compound stock solution (2 mg/mL) and 20 μL of 0.1 M hydrochloric acid into the cuvette with ultrapure water (total volume 3.5 mL). The samples were titrated by 0.1 M sodium hydroxide at 20°C while acquiring absorption spectra (190–500 nm) at different pH values. Absorbance at the chosen wavelength was plotted as a function of pH. The inflection point in the given plot was used for pKa value determination.

[2] = test system: mTORC1 substrate p70 S6 kinase (Thr389 phosphorylation); test: Immunoblot of phospho-p70 S6K (Thr389), mTORC1 activity in cells; assay type: cell-based, human; conditions: for effect on Thr389 S6K phosphorylation / effect on p70 S6K phosphorylation: 100 μM
[3] = Shake-flask partition coefficient logP and distribution coefficient logD (pH 7.4); assay type: physicochemical
Procedure: Before the initiation of the intended experiments, all solvents were mutually saturated at 21°C. […] For saturation, large stock bottles containing n-octanol and 12% of water/buffer or water/buffer and 12% of n-octanol were shaken for 30 mins on a mechanical shaker and subsequently left to stand on the bench overnight until the phases separated. Approximately 0.50 mg of tested substance was added to the test vessels alongside with 1:1 volume ratio of saturated solvents (250 μL). The test vessels were shaken on the mechanical shaker (Multi Reax, Heidolph Instruments, Schwabach, Germany) for 30 min at the highest speed and then centrifuged for phase separation (16.873 × g for 5 min; Eppendorf 5418 Microcentrifuge, Prague, Czech Republic). Both organic and aqueous phases were sampled for LC-MS analysis. UHPLC-DAD-MS (UHPLC Infinity II 1290, detection by DAD and QqQ 6470; Agilent Technologies, CA, USA; separation on Arion C18 polar column 100 × 2.1 mm, 2.1 μm; Chromservis, Czech Republic) was used for determination of the exact concentration of tested substances. The total quantity of substance (in both phases) was used for logP/logD values calculation.

C57BL/6 (B6) male mice [4] = test: Blood counts in the tolerability study; assay type: in vivo; conditions: for MPV: mice, blood day 8, AVG; for Eos / HGB / HOT / MCH / MCHC / MCV / Mon / Neu / PCT / PDW / PLT / RBC / RDW-CV / RDW-SD / WBC / lvm: mouse, in vivo, po
Procedure: (§1) Compounds were dissolved in 20 μL DMSO and completed into 200 μL with corn oil.
(§2) During the experiments, mice behavior and possible apparent signs of toxicity were monitored daily. The body weights were determined on days 0, 4, and 8. On day 8, blood (25 μL) was withdrawn using a capillary pipette containing anticoagulant (heparin) from the retroorbital sinus into EDTA-containing tubes. Basic hematological parameters were measured using the Mindray BC-5300 Vet. Mice were then killed, autopsied, and abdominal organs (spleen, liver, and kidney) were removed for visual examination and imaging by a digital camera. Single-cell suspensions from the spleens were prepared by homogenization through a cell strainer (70 μm; BD Biosciences, San Jose, CA, USA). Erythrocytes were osmotically lysed using ammonium chloride-potassium lysis buffer, and the cell suspensions were washed three times in the RPMI-1640 medium and used for further analysis by flow cytometry for selected cell populations.

C57BL/6 (B6) male mice [5] = test: In vivo tolerability study (behaviour, signs of toxicity, body weight)
Procedure: C57BL/6 (B6) male mice, 8–12 weeks old, were obtained from the Institute of Molecular Genetics, Prague, Czech Republic. Experimental protocols were approved by the Institutional Animal Care Committee of the Institute of Molecular Genetics, Prague.
as §1, §2

[6] = Solubility by nephelometry (water, buffer pH 7.4); assay type: physicochemical
Procedure: Compounds’ solubility was measured by the NEPHELOstar microplate instrument (BMG Labtech, Offenburg, Germany). Stock solutions were prepared by dissolving the tested compounds in ultrapure water or sodium phosphate buffer (pH 7.4) to obtain a concentration of 160 and 1,000 μg/mL. Each stock solution was sonicated at full power by Hielscher UP100H needle ultrasonic processor (Teltow, Germany) before loading into NEPHELOstar instrument injector A. Ultrapure water or sodium phosphate buffer was loaded into injector B. Compound was diluted in 48 wells in 0–160 or 0–1,000 μg/mL range and subsequently shook for 30 s. Each well was scanned with 80% laser power in matrix 3 × 3, beam width 2 mm, and obtained data were evaluated in GraphPad Prism 7.03 (GraphPad Software, San Diego, CA, USA) using segmental linear regression.

[7] = p.o. 5, 25 and 50 mg/kg body weight, days 0, 3, 5

With `Nc1ccc(C(=O)Nc2cccc(-c3c[nH]c4ncccc34)c2)cc1O` [Compound 3, N-(3-(1H-pyrrolo[2,3-b]pyridin-3-yl)phenyl)-4-amino-3-hydroxybenzamide] the pKa ([1]; read-out: pKa1) was 3.6 ± 0.29, the pKa ([1]; read-out: pKa2) was 7.91 ± 0.15 and the “effect on Thr389 S6K phosphorylation” value ([2]; BJ cells, 1 and 5 h) was “inhibitory effect”. For the same molecule, the “effect on Thr389 S6K phosphorylation” value ([2]; DU-145, 1 and 5 h) was “no effect”, the “effect on Thr389 S6K phosphorylation” value ([2]; H1299, 1 and 5 h) was “Marked but transient inhibition” and the “effect on Thr389 S6K phosphorylation” value ([2]; MDA-MB-231, 1 and 5 h) was “Marked but transient inhibition”. The “effect on Thr389 S6K phosphorylation” value ([2]; RPE-1, 1 and 5 h) was “no effect”, the “effect on Thr389 S6K phosphorylation” value ([2]; T98, 1 and 5 h) was “Marked but transient inhibition” and the “effect on Thr389 S6K phosphorylation” value ([2]; U87, after 1 h, reasonable level also after 5 h) was “most potent inhibitory effect”. The “effect on p70 S6K phosphorylation” value ([2]; docetaxel-induced senescent BJ, 1 and 5 h) was “robust effect”, the “effect on p70 S6K phosphorylation” value ([2]; ionizing radiation-induced senescent RPE-1, 1 and 5 h) was “less pronounced effect” and the “concentration from which inhibition of S6K phosphorylation is apparent” value ([2]; proliferating BJ cells, 0–100 μM, after 5 h-long exposure) was 6.25 µM. For the same molecule, the “effect on p70 S6K phosphorylation” value ([2]; temozolomide-induced senescent U87, 1 and 5 h) was “less pronounced effect”, the logD ([3]; n-octanol/sodium phosphate buffer, pH 7.4, shake-flask, n-octanol/sodium phosphate buffer pH 7.4, read-out: logD) was 2.15 ± 0.02 and the logP ([3]; n-octanol/water, shake-flask, n-octanol/water, read-out: logP) was 2.08 ± 0.07. For the same molecule, the MPV (C57BL/6 (B6) male mice [4]; 5 mg/kg p.o. days 0, 3, 5) was 5.67, the MPV (C57BL/6 (B6) male mice [4]; 25 mg/kg p.o. days 0, 3, 5) was 5.37 and the MPV (C57BL/6 (B6) male mice [4]; 50 mg/kg p.o. days 0, 3, 5) was 5.20. For the same molecule, the Eos (C57BL/6 (B6) male mice [4]; 5 mg/kg) was 0.88, the HGB (C57BL/6 (B6) male mice [4]; 5 mg/kg) was 131.00 and the HOT (C57BL/6 (B6) male mice [4]; 5 mg/kg) was 0.44. For the same molecule, the MCH (C57BL/6 (B6) male mice [4]; 5 mg/kg) was 15.90, the MCHC (C57BL/6 (B6) male mice [4]; 5 mg/kg) was 296.33 and the MCV (C57BL/6 (B6) male mice [4]; 5 mg/kg) was 53.70. The Mon (C57BL/6 (B6) male mice [4]; 5 mg/kg) was 0.39 10^9/L, the Neu (C57BL/6 (B6) male mice [4]; 5 mg/kg) was 1.65 and the PCT (C57BL/6 (B6) male mice [4]; 5 mg/kg) was 3.88. The PDW (C57BL/6 (B6) male mice [4]; 5 mg/kg) was 15.20, the PLT (C57BL/6 (B6) male mice [4]; 5 mg/kg) was 677.33 and the RBC (C57BL/6 (B6) male mice [4]; 5 mg/kg) was 8.28 10^12/L. The RDW-CV (C57BL/6 (B6) male mice [4]; 5 mg/kg) was 0.14, the RDW-SD (C57BL/6 (B6) male mice [4]; 5 mg/kg) was 31.27 and the WBC (C57BL/6 (B6) male mice [4]; 5 mg/kg) was 12.56. For the same molecule, the lvm (C57BL/6 (B6) male mice [4]; 5 mg/kg) was 9.60, the Eos (C57BL/6 (B6) male mice [4]; 25 mg/kg) was 0.74 and the HGB (C57BL/6 (B6) male mice [4]; 25 mg/kg) was 136.00. For the same molecule, the HOT (C57BL/6 (B6) male mice [4]; 25 mg/kg) was 0.46, the MCH (C57BL/6 (B6) male mice [4]; 25 mg/kg) was 15.53 and the MCHC (C57BL/6 (B6) male mice [4]; 25 mg/kg) was 294.00. For the same molecule, the MCV (C57BL/6 (B6) male mice [4]; 25 mg/kg) was 52.77, the Mon (C57BL/6 (B6) male mice [4]; 25 mg/kg) was 0.52 10^9/L and the Neu (C57BL/6 (B6) male mice [4]; 25 mg/kg) was 1.47. The PCT (C57BL/6 (B6) male mice [4]; 25 mg/kg) was 1.77, the PDW (C57BL/6 (B6) male mice [4]; 25 mg/kg) was 14.93 and the PLT (C57BL/6 (B6) male mice [4]; 25 mg/kg) was 330.00. For the same molecule, the RBC (C57BL/6 (B6) male mice [4]; 25 mg/kg) was 8.76 10^12/L, the RDW-CV (C57BL/6 (B6) male mice [4]; 25 mg/kg) was 0.15 and the RDW-SD (C57BL/6 (B6) male mice [4]; 25 mg/kg) was 32.23. It also gave a WBC (C57BL/6 (B6) male mice [4]; 25 mg/kg) of 11.49, a lvm (C57BL/6 (B6) male mice [4]; 25 mg/kg) of 8.71 and an Eos (C57BL/6 (B6) male mice [4]; 50 mg/kg) of 0.43. The HGB (C57BL/6 (B6) male mice [4]; 50 mg/kg) was 150.67, the HOT (C57BL/6 (B6) male mice [4]; 50 mg/kg) was 0.52 and the MCH (C57BL/6 (B6) male mice [4]; 50 mg/kg) was 15.10. For the same molecule, the MCHC (C57BL/6 (B6) male mice [4]; 50 mg/kg) was 289.33, the MCV (C57BL/6 (B6) male mice [4]; 50 mg/kg) was 52.07 and the Mon (C57BL/6 (B6) male mice [4]; 50 mg/kg) was 0.72 10^9/L. It also gave a Neu (C57BL/6 (B6) male mice [4]; 50 mg/kg) of 0.86, a PCT (C57BL/6 (B6) male mice [4]; 50 mg/kg) of 3.92 and a PDW (C57BL/6 (B6) male mice [4]; 50 mg/kg) of 14.70. The PLT (C57BL/6 (B6) male mice [4]; 50 mg/kg) was 751.67, the RBC (C57BL/6 (B6) male mice [4]; 50 mg/kg) was 9.99 10^12/L and the RDW-CV (C57BL/6 (B6) male mice [4]; 50 mg/kg) was 0.13. It also gave an RDW-SD (C57BL/6 (B6) male mice [4]; 50 mg/kg) of 29.03, a WBC (C57BL/6 (B6) male mice [4]; 50 mg/kg) of 8.25 and a lvm (C57BL/6 (B6) male mice [4]; 50 mg/kg) of 6.23. For the same molecule, the symptoms of intoxication (C57BL/6 (B6) male mice [5]; 50 mg/kg body weight, perorally) was “did not exert any symptoms of intoxication”, the “changes in mice behavior and body weights” value (C57BL/6 (B6) male mice [5]; [7]) was “no changes” and the “signs of whole body or organ toxicities” value (C57BL/6 (B6) male mice [5]; [7]) was “no apparent signs”. For the same molecule, the solubility kinetic at 30 s ([6]; aqueous buffer, sodium phosphate buffer pH 7.4, nephelometry, read-out: Sol. (buffer 7.4)) was < 6 µg/mL, the “logSpH 7.4” value ([6]; buffer pH 7.4) was <−4.76 and the “Sol. (buffer 7.4)” value ([6]; sodium phosphate buffer pH 7.4, nephelometry) was “lower than 6 μg/mL”. For the same molecule, the “Sol. (H2O)” value ([6]; ultrapure water, nephelometry) was “lower than 6 μg/mL”, the solubility kinetic at 30 s ([6]; ultrapure water, nephelometry, read-out: Sol. (H2O)) was < 6 µg/mL and the logSH2O ([6]; water) was <−4.76.

Reference: PMC9767416, “Discovery of small molecule mechanistic target of rapamycin inhibitors as anti-aging and anti-cancer therapeutics” (Frontiers in Aging Neuroscience, 2022)
